System: 354836-022-R-J1-PDC multicell spheroid viability
Test: Anticancer human tumor 354836-022-R-J1-PDC patient-derived head and neck squamous cell carcinoma cell line growth inhibition [PI3K]
Details: for IC50: curve of first compound; for viability, T/C: stronger effect = lower value
Text: Combinatorial screen of targeted agents with the PI3K inhibitors inavolisib, alpelisib, duvelisib, and copanlisib in multi-cell type tumor spheroids
A high-throughput screen of multi-cell type tumor spheroids was designed to identify active combinations of targeted small molecules and PI3K pathway inhibitors. Complex spheroids include a stromal component modeled by human endothelial cells (HUVEC) and fibroblasts modeled by human mesenchymal stem cells (MSCs). The concentration ranges selected for each drug and investigational agent were based upon clinically achievable concentrations if the clinical Cmax of the agent was known.
Compounds. The drugs and investigational agents: inavolisib (NSC800729), alpelisib (NSC765974), duvelisib (NSC772469), copanlisib (NSC816437), ipatasertib (NSC767898), afuresertib (NSC778305), talazoparib (NSC767125), sapanisertib (NSC764658), selumetinib (NSC741078), tovorafenib (DAY101, NSC766906), vemurafenib (NSC761431), ravoxertinib (NSC781343), sotorasib (NSC818433), MRTX1133 (NSC 836407), abemaciclib (NSC 768073), palbociclib (NSC758247), venetoclax (NSC 766270), SY5609 (NSC837396), enzalutamide (NSC755605), and darolutamide (NSC825331), were obtained from the National Cancer Institute (NCI) Developmental Therapeutics Program Chemical Repository. The FDA-approved anticancer drug set is available from the NCI Developmental Therapeutics Program. […] The stock solutions were prepared in dimethyl sulfoxide (DMSO, Sigma-Aldrich, St. Louis, MO, cat. D2650) at 800-fold the tested concentration and stored at -70 degrees C prior to their use. All drugs and investigational agents were tested over a range starting from a high concentration at or near the clinical Cmax and decreasing in half-log increments. If the clinical Cmax for an agent had not been determined, the highest concentration tested was 10 microM.
Cell Culture. All cells were maintained in an incubator at 37 degrees C and 5% CO2 with 95% humidity. The PDC lines were cultured according to standard operating procedures established by the NCI PDMR (https://pdmr.cancer.gov/sops/default.htm). All PDCs were thawed and cultured in Matrigel-coated flasks prepared with a working solution of 1X Ham's F-12 nutrient mix, without supplementation (Invitrogen, Waltham, MA, cat. 11765054), 100 U/mL penicillin-streptomycin (Invitrogen, cat. 15140122), and 2.5% Matrigel (Corning Inc., Corning, NY, cat. 354248) for the first three passages. The 354836-022-R-J1-PDC, 475296-252-R-J1-PDC, and 997726-040-R-J2-PDC lines were cultured in 6A media, which includes advanced DMEM/F-12 (Thermo Fisher Scientific, cat. 12634028), 10 mM HEPES (Thermo Fisher Scientific, cat. 15630080), 1X GlutaMAX supplement (Thermo Fisher Scientific, cat. 35050061), 0.1 mg/mL primocin (InvivoGen, San Diego, CA, cat. ant-pm-2), 10% defined fetal bovine serum, heat inactivated (HyClone Laboratories Inc., Logan, UT, cat. SH30070.03HI), 50% L-WRN conditioned media (ATCC, cat. CRL-3276), 1.25 mM N-Acetyl-L-cysteine (Sigma-Aldrich, cat. A9165), 10 mM nicotinamide (Sigma-Aldrich, cat. N0636), 1X B-27 supplement (Thermo Fisher Scientific, cat. 17504044), 1X N-2 supplement (Thermo Fisher Scientific, cat. 17502048), and 10 microM Y-27632 dihydrochloride (Tocris Bioscience, Bristol, United Kingdom, cat. 1254). The 624824-186-R-J2-PDC line was cultured in 6C/Colon 1B media, which includes all 6A media components plus 50 ng/mL human EGF recombinant protein (Thermo Fisher Scientific, cat. PHG0311). […]
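Also: spheroids exposed to agents for seven days before the viability read.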

`Cn1cnc2c(F)c(Nc3ccc(Br)cc3Cl)c(C(=O)NOCCO)cc21` + CC(Nc1ccc2c(c1)OCCn1cc(N3C(=O)OCC3C(F)F)nc1-2)C(N)=O showed an IC50 (second compound 0.00316 µM) of over 3 µM, an IC50 (second compound 0.01 µM) of over 3 µM and an IC50 (second compound 0.0316 µM) of over 3 µM. It also gave an IC50 (second compound 0.1 µM) of over 3 µM, an IC50 (second compound 0.316 µM) of 2.27 µM and an IC50 (second compound 1 µM) of 0.252 µM. It also gave a viability, T/C (second compound 0.00316 µM, first compound 0.00949 µM) of 98%, a viability, T/C (second compound 0.00316 µM, first compound 0.03 µM) of 75.2% and a viability, T/C (second compound 0.00316 µM, first compound 0.0949 µM) of 92.6%. It also gave a viability, T/C (second compound 0.00316 µM, first compound 0.3 µM) of 78%, a viability, T/C (second compound 0.00316 µM, first compound 0.949 µM) of 79.2% and a viability, T/C (second compound 0.00316 µM, first compound 3 µM) of 54.9%. It also gave a viability, T/C (second compound 0.01 µM, first compound 0.00949 µM) of 93.2%, a viability, T/C (second compound 0.01 µM, first compound 0.03 µM) of 78.7% and a viability, T/C (second compound 0.01 µM, first compound 0.0949 µM) of 87%. The viability, T/C (second compound 0.01 µM, first compound 0.3 µM) was 78.7%, the viability, T/C (second compound 0.01 µM, first compound 0.949 µM) was 75.6% and the viability, T/C (second compound 0.01 µM, first compound 3 µM) was 56%. The viability, T/C (second compound 0.0316 µM, first compound 0.00949 µM) was 90%, the viability, T/C (second compound 0.0316 µM, first compound 0.03 µM) was 97.1% and the viability, T/C (second compound 0.0316 µM, first compound 0.0949 µM) was 96%. The viability, T/C (second compound 0.0316 µM, first compound 0.3 µM) was 83.5%, the viability, T/C (second compound 0.0316 µM, first compound 0.949 µM) was 83.7% and the viability, T/C (second compound 0.0316 µM, first compound 3 µM) was 65.1%. It also gave a viability, T/C (second compound 0.1 µM, first compound 0.00949 µM) of 88.4%, a viability, T/C (second compound 0.1 µM, first compound 0.03 µM) of 87.3% and a viability, T/C (second compound 0.1 µM, first compound 0.0949 µM) of 84.2%. It also gave a viability, T/C (second compound 0.1 µM, first compound 0.3 µM) of 80.5%, a viability, T/C (second compound 0.1 µM, first compound 0.949 µM) of 81.6% and a viability, T/C (second compound 0.1 µM, first compound 3 µM) of 55.9%. It also gave a viability, T/C (second compound 0.316 µM, first compound 0.00949 µM) of 80.9%, a viability, T/C (second compound 0.316 µM, first compound 0.03 µM) of 81% and a viability, T/C (second compound 0.316 µM, first compound 0.0949 µM) of 67.1%. For the same molecule, the viability, T/C (second compound 0.316 µM, first compound 0.3 µM) was 68%, the viability, T/C (second compound 0.316 µM, first compound 0.949 µM) was 63.4% and the viability, T/C (second compound 0.316 µM, first compound 3 µM) was 45.4%. For the same molecule, the viability, T/C (second compound 1 µM, first compound 0.00949 µM) was 72.2%, the viability, T/C (second compound 1 µM, first compound 0.03 µM) was 57.1% and the viability, T/C (second compound 1 µM, first compound 0.0949 µM) was 55.4%. It also gave a viability, T/C (second compound 1 µM, first compound 0.3 µM) of 52.8%, a viability, T/C (second compound 1 µM, first compound 0.949 µM) of 40.8% and a viability, T/C (second compound 1 µM, first compound 3 µM) of 24.7%.

From PubChem BioAssay AID1963981 (Molecular Pharmacology Branch, DTP, NCI, 2024)
